Here are results for two compounds from US9943614B2, “Cationic steroid antimicrobial diagnostic, detection, screening and imaging methods” (BRIGHAM YOUNG UNIVERSITY, priority 2008, dated 2018).

The subject of test [1] is HIV. The following applies: cited from earlier work.
The subject of test [2] is S. aureus ATCC 25923. The experiment in a line: In vitro binding of 99mTc-labelled agents to viable S. aureus bacteria. The arrangement: species or system Staphylococcus aureus. Conditions: 10 μg concentration, time not stated.
In test [3] the test system is bacteria. Conditions: cited from earlier work.

Regarding `CCCCCCCCNCCC[C@@H](C)[C@H]1CC[C@H]2[C@@H]3[C@H](OCCCN)C[C@@H]4C[C@H](OCCCN)CC[C@]4(C)[C@H]3C[C@H](OCCCN)[C@]12C` [CSA-13], the “HIV infection of primary human CD4+ T cells” value in test [1] is listed as “inhibit HIV infection”.

Take `O=C([O-])CN(CCN(CC(=O)[O-])CC(=O)[O-])CCN(CC(=O)[O-])CC(=O)[O-].[99Tc+4]` [Compound 99mTc-DTPA]: the “In vitro binding to bacteria” value in test [2] is on record as approximately 10%. Besides, in test [3], the “in-vitro binding in published reports” value is reported as more than 8%.
